From ChEMBL document CHEMBL3507680, “University of Dundee, Gates Library screen for HepG2 cell viability” come the findings set out here.

The data set in a line: Human HepG2 cell viability assay in 384 well format. The class given is toxicity, cell-based. Also on record: dose 125 nL, time 70.5 hour; concentration not given beside the values. The note with it: HepG2 cells, read-out: Inhibition.

As for `Cc1noc(C)c1-c1cc(C2CCNCC2)ccn1`, the cytotoxicity at 70.5 h amounted to 3.08%.
On to `NC(=O)c1cc2c(nc1N)CCN(C(=O)C1CCCCC1)C2`, for which the cytotoxicity at 70.5 h came out at 7.07%.
With `CCc1nccn1-c1nccnc1C1CCN(C(=O)COC)CC1` the figure was 14.8%; with `Cc1cc(N)nc(C2(C)CCCN2C(=O)Cc2ccc(F)cc2)n1` (centres undefined), -8.7%.
Turning to `CCC(=O)N1CCC(c2nc3c(c(NC)n2)CN(C)CC3)C1` (centres undefined), the cytotoxicity at 70.5 h was -9.93%.
In the case of `Cc1ncc(CN2CCOC(c3ccc(-c4ccccc4F)cn3)C2)s1` (centres undefined), the cytotoxicity at 70.5 h worked out at 49.2%.
The value for `Cc1noc(C)c1-c1ccc(C2CCCN2C(=O)c2ccncn2)nc1` (centres undefined) was 27.1%.
Consider `Cc1cccnc1Nc1nccc(C2CN(CC(N)=O)C2)n1`, for which the cytotoxicity at 70.5 h is -3.23%.
With `NC(=O)CN1CCCC(Cc2ccc(N3CCOCC3)nn2)C1` (centres undefined) the figure was -0.993%; with `Cc1cccc(C2CCN(S(=O)(=O)c3cn(C)cn3)CC2)n1`, -8.21%; with `CN(C)C(=O)CN1CCCC(Cc2ccc(N3CCCC3)nn2)C1` (centres undefined), -9.12%.
In the case of `COCCn1cnnc1C1CCCN(C(C)C)C1` (centres undefined), the cytotoxicity at 70.5 h is 17.1%.
Regarding `c1ccc(N2CCOC(Cc3cccnc3)C2)cc1` (centres undefined), the cytotoxicity at 70.5 h is -7.14%.
On to `Cc1cc(N2CCCC2c2nc(C)cc(CCC(=O)O)n2)ncn1` (centres undefined), for which the cytotoxicity at 70.5 h was -9.37%.
The value for `Cc1ccnc(C2CCN(S(=O)(=O)c3cn(C)cn3)CC2)n1` was -9.62%.
Regarding `CN(C)C(=O)c1cn[nH]c1C1(C)CCCN(Cc2ccccn2)C1` (centres undefined), the cytotoxicity at 70.5 h is -1.05%.
On to `Nc1nccnc1C1CN(C(=O)c2ccc3c(c2)OCO3)CCO1` (centres undefined), for which the cytotoxicity at 70.5 h is -13.9%.
Regarding `O=C(O)COCC(=O)NC1CC2(CCCCC2)Oc2ccccc21` (centres undefined), the cytotoxicity at 70.5 h is 18.3%.
With `Cc1noc(C)c1-c1nc(N(C)C)ncc1-c1cnccn1` the figure was -5.02%.
With `Cc1noc(C)c1-c1nc(NCCN(C)C)ncc1-c1cnccn1` the figure was -6.59%; with `c1cncc(CC2CN(c3cccnc3)CCO2)c1` (centres undefined), -6.99%.
With `CN1CCN(C(=O)C2CCN(c3cccnn3)C2)CC1` (centres undefined) the figure was -6.3%; with `CC(=O)N1CCN(C(=O)C2CCN(c3cccnn3)C2)CC1` (centres undefined), -0.877%; with `CNC(=O)c1ccc(C2CCCN(C(=O)c3sc(C)nc3C)C2)nc1` (centres undefined), 2.08%.
Turning to `CC(=O)N1CCc2nc(C3CCN(c4ncccn4)C3)ncc2C1` (centres undefined), the cytotoxicity at 70.5 h is -0.395%.
For `CCCc1ncc(CNC2(c3ccc(Cl)cc3)CC2)cn1`, the cytotoxicity at 70.5 h is -4.1%.
Regarding `CCc1ccccc1Nc1noc2c1CN(C(=O)CNC(C)=O)CC2`, the cytotoxicity at 70.5 h worked out at 6.37%.
The value for `Cc1nc(C2CCCN2C(=O)Cc2ccc3c(c2)OCO3)nc(O)c1C` (centres undefined) was -5.28%; that for `CCN(Cc1nc(-c2ccco2)no1)Cc1cccc2c1OCO2` was -3.24%; that for `COC(C)c1cccc(NCc2cccc(O)c2)c1` (centres undefined) was -4%.
With `O=C(c1ccccc1F)N(CCCO)S(=O)(=O)c1cccs1`, the cytotoxicity at 70.5 h was -9.23%.
With `Cc1cc(C)n(CC2CCCN2Cc2ccc(F)cc2C#N)n1` (centres undefined) the figure was -4.46%; with `Cc1ccc(N2CCC(NC(C)c3cccs3)CC2)nc1` (centres undefined), -2.5%.
As to `CC(Cc1ccco1)NC(=O)NCc1ncnn1C` (centres undefined), the cytotoxicity at 70.5 h is 3.51%.
`COc1cc(CNc2nc(C3CC3)no2)cc(OC)c1OC`: the cytotoxicity at 70.5 h was 6.45%.
As to `CCc1noc(CN2CCN(C(=O)Cc3ccc(F)cc3)CC2)n1`, the cytotoxicity at 70.5 h was -5.71%.
Take `Cn1c(CS(=O)(=O)Cc2cccc(Cl)c2)cc(=O)n(C)c1=O`: the cytotoxicity at 70.5 h is -4.54%.
For the compound `COc1cc(CO)ccc1OCc1nc(C2CC2)no1`, the cytotoxicity at 70.5 h is -7.52%.
Consider `Cc1noc(C2CCCN(C(=O)c3cc(Cl)c(Cl)n3C)C2)n1` (centres undefined), for which the cytotoxicity at 70.5 h is -6.05%.
In the case of `CCn1cnnc1CNC(=O)NCC(O)c1ccc(OC)cc1` (centres undefined), the cytotoxicity at 70.5 h was -4.35%.
For the compound `Cc1noc(C2CCCN(C(=O)c3scnc3Cl)C2)n1` (centres undefined), the cytotoxicity at 70.5 h worked out at 13%.
In the case of `O=C(CCCc1nc2ccccc2[nH]1)N1CCCC1c1ccccn1` (centres undefined), the cytotoxicity at 70.5 h was determined as 0.793%.
With `O=C(Cc1cccc(O)c1)NCCNc1nccc(C(F)(F)F)n1`, the cytotoxicity at 70.5 h was -7.29%.
Turning to `Cc1nc(CC(=O)NCCNc2nccc(C(F)(F)F)n2)cs1`, the cytotoxicity at 70.5 h is -6.39%.
Regarding `CC(C)(C)n1cc(C#N)cc1NC(=O)CCNC(=O)c1ccco1`, the cytotoxicity at 70.5 h is 11.3%.
Consider `CC(C)COc1cncc(NCCc2nnc3ccccn23)n1`, for which the cytotoxicity at 70.5 h is -4.15%.
As for `CN(C)c1ncc(NC(=O)c2cccc(Nc3cnn(C)c3)c2)cn1`, the cytotoxicity at 70.5 h was found to be 2.52%.
`COc1cccc(C(CO)NC(=O)Cc2cccc(C)c2)c1` (centres undefined): the cytotoxicity at 70.5 h was -4.94%.
In the case of `COc1ccncc1NCc1cscn1`, the cytotoxicity at 70.5 h was -0.709%.
With `Cc1noc(C2CCCN(C(=O)c3cccc(Cl)c3)C2)n1` (centres undefined) the figure was -0.713%.
With `O=c1cc(CN(CCO)C2CC2)nc2ccccn12` the figure was -3.82%.
Consider `COc1ccc(CNc2nc(C3CC3)no2)cc1OC`, for which the cytotoxicity at 70.5 h is -1.13%.
Regarding `CC(C)Cn1ccnc1CNC(=O)NC(C)(C)c1nccs1`, the cytotoxicity at 70.5 h was 19.7%.
In the case of `Cc1ccccc1C(C)NC(=O)CN1CCN(Cc2ccc(Cl)s2)CC1` (centres undefined), the cytotoxicity at 70.5 h worked out at 17%.
For `COc1ccccc1C(C)NC(=O)N1CCN(Cc2ccc(Br)s2)CC1` (centres undefined), the cytotoxicity at 70.5 h was determined as 5.11%.
As to `COc1cc(OC)cc(-c2noc(CN)n2)c1`, the cytotoxicity at 70.5 h is 45.5%.
Take `Cc1cccc(NC(=O)CNC(=O)c2ccccc2F)c1`: the cytotoxicity at 70.5 h was 4.02%.
In the case of `CCOc1ccccc1NC(=O)NCc1ccoc1`, the cytotoxicity at 70.5 h was -1.18%.
`CN(c1ncccc1C#N)C1CCN(CCc2ccccn2)CC1`: the cytotoxicity at 70.5 h was found to be 13.7%.
With `CNS(=O)(=O)c1cccc(S(=O)(=O)Nc2ncc(C)s2)c1`, the cytotoxicity at 70.5 h worked out at 3.06%.
The value for `NC(=O)CS(=O)(=O)Cc1ccc(OCc2ccc(F)cc2)cc1` was -2.96%; that for `CS(=O)(=O)Cc1ccc(OCc2ccc(F)cc2)cc1` was 19.8%.
Regarding `Cc1ccc(CC(=O)NCC(O)c2cccc(C(F)(F)F)c2)cn1` (centres undefined), the cytotoxicity at 70.5 h is -0.0497%.
In the case of `O=C(CC1CCCCC1)N1CCC(O)(C(F)(F)F)C1` (centres undefined), the cytotoxicity at 70.5 h turned out to be 1.99%.
Regarding `CN(C)Cc1ccc(C(N)=O)cc1NC(=O)c1cccc(C#N)c1`, the cytotoxicity at 70.5 h is -4.53%.
`CN(C)C(=O)Cc1ccc(NCc2nccn2C)cc1`: the cytotoxicity at 70.5 h was -2.12%.
Consider `O=C(NCc1cc(F)ccc1F)Nc1ccn(CC(F)F)n1`, for which the cytotoxicity at 70.5 h is 0.0811%.
With `CCCn1cnc(S(=O)(=O)Nc2cccnc2-n2cccn2)c1`, the cytotoxicity at 70.5 h is 19.8%.
For `COCCC(=O)N1CCC(NC(=O)c2cscc2C)CC1`, the cytotoxicity at 70.5 h amounted to 6.09%.
With `COCC(O)CN1CCC(NC(=O)c2cscc2C)CC1` (centres undefined) the figure was 3.56%; with `CCOc1ccc(NC(=O)c2cc(C)c(C)o2)cc1CO`, 26.7%; with `O=C(NCc1cccnc1)Nc1ccn(CC(F)F)n1`, -3.22%.
In the case of `N#CCCN(Cc1ccco1)C(=O)COC1CCCCC1`, the cytotoxicity at 70.5 h amounted to 21.5%.
The value for `O=C1C(Sc2cnn[nH]2)CCCN1c1ccccc1F` (centres undefined) was 19%; that for `O=C(NCc1cc(-c2ccccc2)no1)NCC1CCCO1` (centres undefined) was -0.266%; that for `O=S(=O)(Cc1cc(-c2ccccc2)no1)CC1CCCO1` (centres undefined) was -8.25%.
With `CCCN(Cc1cnn(C)c1)S(=O)(=O)c1ccc(F)c(C#N)c1` the figure was -7.37%.
Regarding `COCC(=O)N1CCN(Cn2nc(C)c(Br)c2C)CC1`, the cytotoxicity at 70.5 h is -2.69%.
For `CC(C)CN(CC(O)c1ccccc1)C(=O)Nc1nccs1` (centres undefined), the cytotoxicity at 70.5 h was -6.61%.
With `CCCN(Cc1cnn(C)c1)S(=O)(=O)c1cc(C)cc(F)c1` the figure was 23.3%; with `CCOc1cccc(NC(=O)c2cc(C)on2)n1`, -5.47%; with `Cc1cc(CSCc2csc(CS(C)(=O)=O)n2)no1`, 2%.
For the compound `CC(C)C(NCc1ccc(Cn2cncn2)cc1)c1ccccc1` (centres undefined), the cytotoxicity at 70.5 h is -3.88%.
With `CCOCCOc1ccc(S(=O)(=O)N2CCc3c(nc[nH]c3=O)C2)cc1` the figure was 1.59%; with `CNC(=O)CN1CCC(CN(C)Cc2ccc(C)cc2C)CC1`, 27.9%; with `COC(=O)COc1c(F)cc(Br)cc1C(C)=O`, -2.7%.
On to `Cc1ccc(S(N)(=O)=O)cc1C(=O)NC1CCCN(C)C1` (centres undefined), for which the cytotoxicity at 70.5 h was determined as 1.47%.
On to `CN(CC(=O)NS(=O)(=O)c1cccs1)Cc1ccccc1`, for which the cytotoxicity at 70.5 h was determined as 7.04%.
With `CN(CC(=O)NS(=O)(=O)c1ccsc1)Cc1ccccc1`, the cytotoxicity at 70.5 h is -6.37%.
For the compound `CN(C)C(=O)C1SCCc2ccccc21` (centres undefined), the cytotoxicity at 70.5 h is -6.79%.
With `Cc1cnc(CNC(=O)NC2CCCN(c3ccccc3F)C2)s1` (centres undefined) the figure was -3.86%; with `Cc1cccc(C(=O)NCCNS(=O)(=O)c2cccs2)c1C`, -5.88%.
For the compound `CCOCCCC(=O)NCc1ccnc(N2CCN(C)CC2)c1`, the cytotoxicity at 70.5 h is 4.8%.
In the case of `CCOc1ccc(-c2nc(CN(C)Cc3c(C)noc3C)cs2)cc1`, the cytotoxicity at 70.5 h amounted to 11.3%.
In the case of `O=C(Cn1cc(C2CC2)nn1)N(Cc1ccco1)CC1CCCO1` (centres undefined), the cytotoxicity at 70.5 h was found to be 10.2%.
With `Cc1ccccc1C(NC(=O)NCC1(O)CCC1)C1CC1` (centres undefined), the cytotoxicity at 70.5 h came out at 5.34%.
With `COc1cc(C(=O)NC(C)c2cccs2)cc2c1OCCO2` (centres undefined) the figure was -9.64%.
With `NC(=O)c1ccc(C2CCCNC2)nc1` (centres undefined), the cytotoxicity at 70.5 h was -4.69%.
With `Cc1ccc(-c2ccc(CC3NCCN(C)C3=O)cc2)cc1` (centres undefined) the figure was 20.9%; with `c1cn(-c2cnc(C3CCCNC3)cn2)cn1` (centres undefined), 22.8%.
The value for `CN1CCNC(Cc2ccc(-c3ccncc3)cc2)C1=O` (centres undefined) was -5.04%.
With `NC(C(=O)N1CCSc2ccccc2C1)c1ccccc1` (centres undefined) the figure was 2.56%.
Consider `c1cn(-c2cnc(C3CCNCC3)cn2)cn1`, for which the cytotoxicity at 70.5 h was -10.7%.
Regarding `O=C(CN1CCC(c2cc(=O)n3c(n2)CCCCC3)C1)N1CCCCC1` (centres undefined), the cytotoxicity at 70.5 h is -8.93%.
